Experimental data published in ChEMBL document CHEMBL1155667, “A cytotoxic 5alpha,8alpha-epidioxysterol from a soft coral Sinularia species” (2000).
In brackets after ≈: the same amount, converted by molar mass.

Legend:
Type in all cases: functional
Settings in all cases: read-out: ED50 (the source's name)
KB = test: Cytotoxicity against human KB cells by modified MTT assay
A549 = test: Cytotoxicity against human A549 cells by modified MTT assay
HT-29 = test: Cytotoxicity against human HT29 cells by modified MTT assay
P388 = test: Cytotoxicity against mouse P388 cells by modified MTT assay

Compound | EC50 (KB) | EC50 (A549) | EC50 (HT-29) | EC50 (P388)
C=C(CC[C@@H](C)[C@H]1CC[C@H]2[C@@H]3C[C@@H](O)[C@@]4(O)C[C@@H](O)C[C@H](O)[C@]4(C)[C@H]3CC[C@]12C)C(C)C | 1.9 µg/mL (≈ 4.23 µM) | 10.8 µg/mL (≈ 24.1 µM) | 1.5 µg/mL (≈ 3.34 µM) | 8.3 µg/mL (≈ 18.5 µM)
CC(C)[C@@H](C)[C@H]1C[C@@H]1[C@@H](C)[C@H]1CC[C@@H]2[C@]1(C)CC[C@H]1[C@]23C=C[C@]2(C[C@@H](O)CC[C@]12C)OO3 | 2.1 µg/mL (≈ 4.74 µM) | 2.7 µg/mL (≈ 6.1 µM) | 1.4 µg/mL (≈ 3.16 µM) | 0.4 µg/mL (≈ 0.904 µM)
CC(=O)[C@H]1CC[C@H]2[C@@H]3CC=C4C[C@@H](O)CC[C@]4(C)[C@H]3CC[C@]12C [PREGNENOLONE] | > 50 µg/mL | 8.6 µg/mL (≈ 27.2 µM) | 0.7 µg/mL (≈ 2.21 µM) | 7.8 µg/mL (≈ 24.6 µM)
